Read-outs that look alike come from different tables or passages of the source.
Experiments:
in vivo = experiment: in vivo
Method: Test Example 3. Pharmacokinetic Study for Determining Compound Concentrations in Mice by LC-MS/MS
Principle: LC-MS/MS is used to quantify the plasma concentrations of the test article at successive time points, generating an in-vivo pharmacokinetic profile.
Procedure: The test compound was dissolved in DMSO to prepare a 10 mg/mL stock solution. This stock was further diluted to 1 mg/mL with a vehicle consisting of 10 % DMSO + 10 % Solutol HS-15 + 80 % saline. Male CD-1 mice (JH Laboratory Animal Co., LTD) were employed; six animals were assigned per compound group. […] Serial blood samples (~50 µL whole blood, K2EDTA anticoagulant) were collected at 0.083, 0.25, 0.5, 1, 2, 4, 8 and 24 h (three mice per time point in a crossover design). Blood was centrifuged at 6 000 g for 5 min at 4 °C; plasma was harvested and stored at -70 °C until analysis. Plasma drug concentrations were determined by LC-MS/MS.
Calibration Curve and QC Preparation: Working solutions were prepared by dilution with MeOH:H2O (1:1). For each calibration or QC level, 3 µL of working solution was spiked into 57 µL of blank mouse plasma.
Sample Processing: To 30 µL of plasma was added 200 µL of methanol containing the internal standard (propranolol, 40 ng mL^-1). After vortex-mixing for 1 min, the mixture was centrifuged at 12 000 rpm for 10 min. A 100 µL aliquot of the supernatant was transferred to a clean plate for injection.
Pharmacokinetic Analysis: Concentration-time data were analyzed with WinNonlin 8.2 using a non-compartmental approach to derive PK parameters including Cmax, Tmax, AUC and terminal elimination half-life (t1/2). AUC was calculated by the linear-up/log-down trapezoidal method. Table 3. Pk parameters of compounds

HCT116 cells = experiment: Inhibition of cell proliferation by CTG (CellTiter-Glo) luminescence assay; assay type: cell-based; conditions: Homo sapiens, HCT-116; 72 h incubation, CellTiter-Glo; read-out: HCT116, IC50
Excerpt: Test Example 2. Determination of Compound-Mediated Inhibition of Cell Proliferation by CTG (CellTiter-Glo) Luminescence Assay
Principle: The Promega CellTiter-Glo™ luciferase reagent was used. Luciferase consumes ATP to generate light; metabolically active cells continuously produce ATP through respiration and other processes. After adding an equal volume of CellTiter-Glo™ reagent to the culture medium, the resulting luminescence is directly proportional to the ATP content, which in turn correlates with the number of viable cells. Thus, the assay quantifies compound-induced suppression of cell proliferation.
Experimental Procedure: HCT116 cells (ATCC) were revived in complete medium (McCoy's 5a + 10 % FBS). After two passages, exponentially growing cells were harvested, counted, and resuspended to the appropriate density. A 100 µL aliquot of cell suspension (2 000 cells per well) was seeded into 96-well plates and incubated overnight (37 °C, 5 % CO2, 100 % relative humidity). Test compounds were dissolved in DMSO to prepare 10 mM stock solutions and serially diluted 1:3 in DMSO to generate nine concentration steps. Each DMSO solution was further diluted 200-fold into medium; 25 µL of the resulting solutions were added to the cell plates (final DMSO concentration […]). After 72 h incubation (37 °C, 5 % CO2), 50 µL of CellTiter-Glo reagent was added per well. Plates were shaken gently, incubated for 30 min at room temperature in the dark, and luminescence was read on an EnVision multimode reader. Percent inhibition was calculated as: Inhibition % = (1−As/Ac) × 100, [formula] where As = signal from compound-treated wells and Ac = signal from DMSO-only control wells. Concentration-response data were fitted in Excel with the XLfit add-in using the four-parameter logistic equation: Y = Bottom + (Top−Bottom)/[1+((IC50/X))^(∧)HillSlope], [formula] to derive the IC50 value for each compound. Table 2. IC50 of compounds

topoisomerase I (Topo I) = biological target: T1, topoisomerase I (Topo I) (Homo sapiens, UniProt P11387); experiment: Topo I enzyme-inhibitory activity by agarose-gel electrophoresis (plasmid relaxation); assay type: biochemical
T1 sequence (P11387 1-765): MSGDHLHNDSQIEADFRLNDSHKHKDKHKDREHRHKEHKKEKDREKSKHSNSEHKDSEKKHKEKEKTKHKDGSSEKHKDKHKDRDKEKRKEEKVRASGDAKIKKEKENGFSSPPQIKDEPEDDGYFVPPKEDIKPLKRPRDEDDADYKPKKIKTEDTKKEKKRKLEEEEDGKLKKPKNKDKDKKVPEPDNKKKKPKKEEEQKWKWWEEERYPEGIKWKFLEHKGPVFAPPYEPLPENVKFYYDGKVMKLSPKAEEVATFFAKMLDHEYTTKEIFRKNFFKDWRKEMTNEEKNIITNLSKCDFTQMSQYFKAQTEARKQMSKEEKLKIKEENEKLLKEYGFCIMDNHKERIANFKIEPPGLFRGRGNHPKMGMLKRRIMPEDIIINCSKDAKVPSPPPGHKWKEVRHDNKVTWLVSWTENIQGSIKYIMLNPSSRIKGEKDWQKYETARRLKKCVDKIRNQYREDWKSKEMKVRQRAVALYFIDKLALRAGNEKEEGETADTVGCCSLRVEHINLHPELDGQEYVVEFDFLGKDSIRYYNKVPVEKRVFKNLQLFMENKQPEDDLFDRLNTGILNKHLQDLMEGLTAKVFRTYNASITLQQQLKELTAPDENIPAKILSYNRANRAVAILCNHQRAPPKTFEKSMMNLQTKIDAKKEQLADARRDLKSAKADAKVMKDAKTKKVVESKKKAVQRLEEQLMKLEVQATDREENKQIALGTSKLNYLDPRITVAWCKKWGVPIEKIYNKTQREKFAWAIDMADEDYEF
Excerpt: Test Example 1. Determination of Topo I Enzyme-Inhibitory Activity by Agarose-Gel Electrophoresis
Principle: Type-I topoisomerase (Topo I) relaxes positive and negative supercoils by introducing transient single-strand breaks and forming reversible cleavage complexes (Topo I-DNA covalent complexes). Gel electrophoresis can resolve DNA species of identical molecular weight but different topology: supercoiled plasmid migrates fastest, whereas the nicked, relaxed form moves more slowly. Quantifying the decrease in supercoiled DNA therefore provides a direct measure of Topo I activity.
Experimental Procedure: A 1× reaction buffer was prepared (20 mM Tris-HCl pH 7.5, 200 mM NaCl, 0.25 mM EDTA, 5 % (v/v) glycerol, 0.5 µg pNO1 plasmid substrate). Test compounds (5 % DMSO final) were added to the buffer, followed by Topo I enzyme (0.75 U per reaction). After gentle mixing, reactions were incubated at 37 °C for 30 min. Positive (enzyme + vehicle) and negative (no enzyme) controls were included in parallel. Reactions were terminated by adding STEB buffer and chloroform/iso-amyl alcohol (24:1, v/v), vortexed and centrifuged for 2 min. The aqueous (upper) phase was loaded onto a 1 % (w/v) agarose gel, electrophoresed for 1-2 h, stained with GelRed, and imaged under UV trans-illumination.
Data Analysis: Band intensities of supercoiled DNA were quantified with image-analysis software. Relaxation activity (%) was calculated as (Max-Sample)/ (Max-Min)*100%, where Max = intensity of the no-enzyme negative control, Min = intensity of the vehicle-only positive control, and Sample = intensity of the compound-treated lane. Dose-response data (compound concentration, X; relaxation activity %, Y) were fitted in Excel or GraphPad Prism 5.0 using the four-parameter logistic equation: Y=Bottom + (Top-Bottom)/(1+(IC50/X)[…]) to derive the IC50 value for each compound.
Table 1. Compound-mediated inhibition of topoisomerase I (Topo I) enzymatic activity

[1] = male, CD-1, mouse, po, 20 mg/kg
[2] = male, CD-1, mouse, po, 10 mg/kg
[3] = 0.75 U Topo I, pNO1 plasmid, 37 °C, 30 min; compounds listed by group (Group A / Group B); read-out: inhibition of topoisomerase I (Topo I) enzymatic activity, IC50

CC[C@@]1(O)C(=O)OCc2c1cc1n(c2=O)Cc2c-1c(=O)c1cc(F)ccc1n2[C@@H]1CCN(CCO)C1 [Example 252, (S)-4-ethyl-8-fluoro-4-hydroxy-11-((R)-1-(2-hydroxyethyl)pyrrolidin-3-yl)-1,12-dihydro-14H-pyrano[3',4':6,7]indolizino[2,1-b]quinoline-3,6,14(4H,11H)-trione]
bioavailability (in vivo; male, CD-1, mouse): 43.1% | AUC(0-t) (in vivo; male, CD-1, mouse, iv, 2 mg/kg): 674 ng·h/mL | Cmax (in vivo; male, CD-1, mouse, iv, 2 mg/kg): 558 ng/mL | clearance (in vivo; male, CD-1, mouse, iv, 2 mg/kg): 49.2 mL/min/kg | half-life (in vivo; male, CD-1, mouse, iv, 2 mg/kg): 1.17 h | AUC(0-t) (in vivo; [1]): 2820 ng·h/mL | Cmax (in vivo; [1]): 680 ng/mL | Tmax (in vivo; [1]): 1.33 h | half-life (in vivo; [1]): 5.75 h

CC[C@@]1(O)C(=O)OCc2c1cc1n(c2=O)Cc2c-1nc1cc(F)c(C)c3c1c2[C@@H](NC(=O)CO)CC3 [DXd]
AUC(0-t) at 24 h (in vivo; mouse, in vivo, iv, 1 mg/kg): 154 ng·h/mL | Cmax (in vivo; mouse, in vivo, iv, 1 mg/kg): 455 ng/mL | clearance (in vivo; mouse, in vivo, iv, 1 mg/kg): 108 mL/min/kg | half-life (in vivo; mouse, in vivo, iv, 1 mg/kg): 0.155 h | AUC(0-t) at 24 h (in vivo; mouse, in vivo, po, 10 mg/kg): 4.32 ng·h/mL | Cmax (in vivo; mouse, in vivo, po, 10 mg/kg): 6.99 ng/mL | Tmax (in vivo; mouse, in vivo, po, 10 mg/kg): 0.33 h | half-life (in vivo; mouse, in vivo, po, 10 mg/kg): 0.39 h

CC[C@@]1(O)C(=O)OCc2c1cc1n(c2=O)Cc2c-1c(=O)c1cc(F)ccc1n2[C@@H]1CCN(C2CCCC2)C1 [Example 257, (S)-4-ethyl-8-fluoro-4-hydroxy-11-((R)-1-cyclopentylpyrrolidin-3-yl)-1,12-dihydro-14H-pyrano[3',4':6,7]indolizino[2,1-b] quinoline-3,6,14(4H,11H)-trione]
IC50 (HCT116 cells): < 20 nM | bioavailability (in vivo; male, CD-1, mouse): 40.2% | AUC(0-t) (in vivo; male, CD-1, mouse, iv, 1 mg/kg): 352 ng·h/mL | Cmax (in vivo; male, CD-1, mouse, iv, 1 mg/kg): 635 ng/mL | clearance (in vivo; male, CD-1, mouse, iv, 1 mg/kg): 47.4 mL/min/kg | half-life (in vivo; male, CD-1, mouse, iv, 1 mg/kg): 1.24 h | AUC(0-t) (in vivo; [2]): 1370 ng·h/mL | Cmax (in vivo; [2]): 528 ng/mL | Tmax (in vivo; [2]): 0.83 h | half-life (in vivo; [2]): 7.95 h

CC[C@@]1(O)C(=O)OCc2c1cc1n(c2=O)Cc2c-1c(=O)c1cc(F)c([C@H](C)O)cc1n2C1CCCC1 (single isomer, unassigned) [Example 293]
IC50 (topoisomerase I (Topo I); [3]): 200 to 500 nM

CC[C@@]1(O)C(=O)OCc2c1cc1n(c2=O)Cc2c-1c(=O)c1cc(F)ccc1n2CCNC1CC1 [Example 96, (S)-11-(2-(cyclopropylamino)ethyl)-4-ethyl-8-fluoro-4-hydroxy-1,12-dihydro-14H-pyrano[3,4:6,7]indolizino[2,1-b]quinoline-3,6,14 (4H,11H)-trione]
IC50 (topoisomerase I (Topo I); read-out: inhibition of topoisomerase I (Topo I) enzymatic activity, IC50; 0.75 U Topo I, pNO1 plasmid, 37 °C, 30 min; compounds listed by group (Group A / Group B)): < 200 nM

CC[C@@]1(O)C(=O)OCc2c1cc1n(c2=O)Cc2c-1c(=O)c1cc(F)c([C@@H](C)O)cc1n2C1CCCC1 (single isomer, unassigned) [Example 294]
IC50 (topoisomerase I (Topo I); [3]): 200 to 500 nM

CC[C@@]1(O)C(=O)OCc2c1cc1n(c2=O)Cc2c-1c(=O)c1cc(F)ccc1n2CCN(C)C1CC1 [Example 97, (S)-11-(2-(cyclopropyl(methyl)amino)ethyl)-4-ethyl-8-fluoro-4-hydroxy-1,12-dihydro-14H-pyrano[3,4:6,7]indolizino[2,1-b]quinoline-3,6,14(4H,11H)-trione]
bioavailability (in vivo; mouse, in vivo): 34.5% | AUC(0-t) at 24 h (in vivo; mouse, in vivo, iv, 1 mg/kg): 114 ng·h/mL | Cmax (in vivo; mouse, in vivo, iv, 1 mg/kg): 256 ng/mL | clearance (in vivo; mouse, in vivo, iv, 1 mg/kg): 146 mL/min/kg | half-life (in vivo; mouse, in vivo, iv, 1 mg/kg): 0.482 h | AUC(0-t) at 24 h (in vivo; mouse, in vivo, po, 10 mg/kg): 395 ng·h/mL | Cmax (in vivo; mouse, in vivo, po, 10 mg/kg): 131 ng/mL | Tmax (in vivo; mouse, in vivo, po, 10 mg/kg): 0.92 h | half-life (in vivo; mouse, in vivo, po, 10 mg/kg): 1.26 h
